Assay results from patent US7906510B2, “Amide derivative and pharmaceutical composition containing the same” (Dainippon Sumito Pharma Co., Ltd., priority 2008, dated 2011).
Structures can show the parent of a compound that is named as a salt. Where two headings read alike, the source gives them in different places.

Legend:
Male Slc-ddy mice = test: Mouse defecation assay; assay type: in vivo; design: key: −: No Effect; +: Moderately Improved (p<0.05); ++: Significantly Improved (p<0.01); settings: 3 mg/kg orally; stool weight 30, 60 and 120 minutes after administration; Dunnett assay vs control
Method: Male Slc-ddy mice (body weight 25 to 30 g) were used and allowed to ingest food and water ad libitum until commencement of experiments.
A group of 25 mice was divided into 5 groups, which 5 mice each per group were respectively transferred to fasting cages to adjust to new environments for about 1 hour. Then, each mouse was orally administered 3 mg/kg suspension of a test compound in 0.5% tragacanth solution to measure each stool weight of each group 30, 60, and 120 minutes after oral administration.
Efficacies were evaluated by Dunnett assay between test compounds and control.

[1] = system: Male Slc-Hartley guinea pigs; test: Electrocardiographic assay for guinea pig; settings: dose extending 5% of QTc; i.v. infusion for 15 minutes, anesthetized guinea pigs, ECG lead II
Method: (§1) Male Slc-Hartley guinea pigs were anesthetized to determine electrocardiogram (lead II) under artificial respiration. A drug solution was continuously and intravenously infused via cannula indwelled in cervical veins at a flow rate: 0.2 ml/kg/min for 15 minutes.

5-HT4 receptor = target: T1, 5-HT4 receptor (Cavia porcellus, UniProt O70528); test: Serotonin 4 (5-HT4) receptor binding assay; design: species or system guinea pig; settings: inhibition of specific binding of 0.1 nM [3H]-GR113808; guinea pig striatum membrane preparations; 37° C., 30 minutes; read-out: IC50
T1 construct: the mixture was suspended to give receptor membrane preparations; from tissue; host or cells: guinea pig (Slc-Hartley) brain striatum membranes
T1 sequence (O70528 whole entry): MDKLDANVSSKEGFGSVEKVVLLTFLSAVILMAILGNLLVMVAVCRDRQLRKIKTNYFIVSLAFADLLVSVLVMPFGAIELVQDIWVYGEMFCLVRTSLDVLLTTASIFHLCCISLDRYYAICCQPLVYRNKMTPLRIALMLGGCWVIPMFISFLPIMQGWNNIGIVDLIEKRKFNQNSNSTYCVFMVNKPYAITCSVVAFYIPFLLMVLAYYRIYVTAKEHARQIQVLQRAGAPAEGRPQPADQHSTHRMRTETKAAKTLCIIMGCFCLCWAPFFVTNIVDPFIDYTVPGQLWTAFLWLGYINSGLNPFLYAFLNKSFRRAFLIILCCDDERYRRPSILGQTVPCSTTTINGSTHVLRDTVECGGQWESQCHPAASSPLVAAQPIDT
Method: 5-HT4 receptor binding assay and preparations of receptor membrane preparations were carried out according to a method of Grossman et al. [see British J. Pharmacol., (1993) 109, 618].
Slc-Hartley guinea pigs (body weight 300 to 400 g) were decapitated to remove brain rapidly, and striatum was isolated. To the obtained tissues were added fifteenfold of Hepes buffer (50 mM, pH7.4, 4° C.), and the mixture was homogenized by Teflon® homogenizer and centrifuged at 48,000×g (4° C.) for 15 minutes. To the resulting precipitate was added Hepes buffer (1 ml) to 30 mg by wet weight of tissues, and the mixture was suspended to give receptor membrane preparations.
0.1 nM [^3H]-GR113808 {chemical name: [1-[2-(methylsulfonylamino)ethyl]-4-piperidinyl]methyl 1-methylindole-3-carboxylate}, receptor membrane preparations, and Hepes buffer (50 mM, pH7.4, 4° C., 1 ml) containing test compounds or 30 μM serotonin were placed in an assay tube, and incubated at 37° C. for 30 minutes. On quenching the reaction, the mixture was rapidly filtered on whatman GF/B filter, which was presoaked in 0.1% polyethyleneimine for 1 hour, by using Brandel cell Harvester, and washed with ice-cooled 50 mM Tris-HCl (pH7.7, 4 ml) three times. To the filter after filtration was added ACS II scintillator, and then a radioactivity was determined by a liquid scintillation counter.
50% inhibition concentrations (IC50) were determined from inhibition rates of test compounds to specific bindings which were obtained by subtracting nonspecific bindings from total binding amounts of [^3H]-GR113808.

[2] = system: Male Slc-Hartley guinea pigs; settings: guinea pig, in vivo, iv
Method: as §1

| melting point | IC50 (5-HT4 receptor) [nM] | Compound | also measured |
| --- | --- | --- | --- |
| 164 to 167 °C (dec.) | – | COc1cc(N)c(Cl)cc1C(=O)NC[C@H]1CN(CC2CCN(C(=O)CO)CC2)CCO1 (as salt: hydrochloride) [Example 198, 4-amino-5-chloro-N-[{4-[(1-hydroxyacetyl-4-piperidinyl)methyl]-2-morpholinyl}methyl]-2-methoxybenzamide hydrochloride] | – |
| 201 to 207 °C | – | CCOc1cc(N)c(Cl)cc1C(=O)NCC1CN(CC2CCN(C(N)=O)CC2)CCO1 (stereo not drawn) [Example 43, 4-amino-N-[{4-((1-carbamoyl-4-piperidinyl)methyl)-2-morpholinyl}methyl]-5-chloro-2-ethoxybenzamide] | – |
| 179 to 180 °C | – | COc1cc(N)c(Cl)cc1C(=O)NCC1CN(CC2CCN(C(=O)N(C)C)CC2)CCO1 (stereo not drawn) [Example 67, 4-amino-5-chloro-N-[{4-[(1-dimethylcarbamoyl-4-piperidinyl)methyl]-2-morpholinyl}methyl]-2-methoxybenzamide] | – |
| 157 to 158 °C | 9.04 | CCOc1cc(N)c(Cl)cc1C(=O)NC[C@H]1CN(CC2CCN(C(=O)N(C)C)CC2)CCO1 [Example 72] | Effect (Male Slc-ddy mice): ++; ED5% (mg/kg,i.v.) [1]: >30 mg/kg |
| 175 °C | 9.36 | CCOc1cc(N)c(Cl)cc1C(=O)NCC1CN(CC2CCN(C(=O)OC)CC2)CCO1 (stereo not drawn) [Example 93] | – |
| – | – | CCOc1cc(N)c(Cl)cc1C(=O)NC[C@H]1CN(CC2CCN(C(=O)CO)CC2)CCO1 [Example 197] | Effect (Male Slc-ddy mice): ++; ED5% (mg/kg,i.v.) [2]: >30 mg/kg |
| 127 to 129 °C | – | CCOc1cc(N)c(Cl)cc1C(=O)NC[C@H]1CN(CC2CCN(C(=O)N(C)OC)CC2)CCO1 [Example 205, (S)-4-amino-5-chloro-2-ethoxy-N-[{4-[(1-(N-methoxy-N-methylcarbamoyl)-4-piperidinyl)methyl]-2-morpholinyl}methyl]benzamide] | – |
| 166 to 168 °C | 4.79 | CCOc1cc(N)c(Cl)cc1C(=O)NC[C@H]1CN(CC2CCN(C(=O)N3CCC3)CC2)CCO1 [Example 208, (S)-4-amino-N-[{4-[(1-(1-azetidinecarbonyl)-4-piperidinyl)methyl]-2-morpholinyl}methyl]-5-chloro-2-ethoxybenzamide] | – |
| 197 °C (dec.) | – | CCOc1cc(N)c(Cl)cc1C(=O)NCC1CN(CC2CCN(C#N)CC2)CCO1 (stereo not drawn) [Example 211, 4-amino-5-chloro-N-[{4-[(1-cyano-4-piperidinyl)methyl]-2-morpholinyl}-methyl]-2-ethoxybenzamide] | – |
